# Measurements published in article PMC6934184, “Selective DNA-PKcs inhibition extends the therapeutic index of localized radiotherapy and chemotherapy” (The Journal of Clinical Investigation, 2019).
# Molecular target: T1, JAK1 (Homo sapiens, UniProt P23458)
# T1 construct: purchased Thermo Fisher Scientific (Life Technologies) SelectScreen
# Test: SelectScreen Z'LYTE
# Format: biochemical
# Outline: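 NU5455 was profiled across the SelectScreen Broad panel of kinase activity and binding assays. Z'LYTE reactions such as CSF1R ran at apparent Km ATP, while the Adapta CAMK1 assay used ATP listed as 10. Values are given as percent.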
# T1 sequence (P23458 whole entry): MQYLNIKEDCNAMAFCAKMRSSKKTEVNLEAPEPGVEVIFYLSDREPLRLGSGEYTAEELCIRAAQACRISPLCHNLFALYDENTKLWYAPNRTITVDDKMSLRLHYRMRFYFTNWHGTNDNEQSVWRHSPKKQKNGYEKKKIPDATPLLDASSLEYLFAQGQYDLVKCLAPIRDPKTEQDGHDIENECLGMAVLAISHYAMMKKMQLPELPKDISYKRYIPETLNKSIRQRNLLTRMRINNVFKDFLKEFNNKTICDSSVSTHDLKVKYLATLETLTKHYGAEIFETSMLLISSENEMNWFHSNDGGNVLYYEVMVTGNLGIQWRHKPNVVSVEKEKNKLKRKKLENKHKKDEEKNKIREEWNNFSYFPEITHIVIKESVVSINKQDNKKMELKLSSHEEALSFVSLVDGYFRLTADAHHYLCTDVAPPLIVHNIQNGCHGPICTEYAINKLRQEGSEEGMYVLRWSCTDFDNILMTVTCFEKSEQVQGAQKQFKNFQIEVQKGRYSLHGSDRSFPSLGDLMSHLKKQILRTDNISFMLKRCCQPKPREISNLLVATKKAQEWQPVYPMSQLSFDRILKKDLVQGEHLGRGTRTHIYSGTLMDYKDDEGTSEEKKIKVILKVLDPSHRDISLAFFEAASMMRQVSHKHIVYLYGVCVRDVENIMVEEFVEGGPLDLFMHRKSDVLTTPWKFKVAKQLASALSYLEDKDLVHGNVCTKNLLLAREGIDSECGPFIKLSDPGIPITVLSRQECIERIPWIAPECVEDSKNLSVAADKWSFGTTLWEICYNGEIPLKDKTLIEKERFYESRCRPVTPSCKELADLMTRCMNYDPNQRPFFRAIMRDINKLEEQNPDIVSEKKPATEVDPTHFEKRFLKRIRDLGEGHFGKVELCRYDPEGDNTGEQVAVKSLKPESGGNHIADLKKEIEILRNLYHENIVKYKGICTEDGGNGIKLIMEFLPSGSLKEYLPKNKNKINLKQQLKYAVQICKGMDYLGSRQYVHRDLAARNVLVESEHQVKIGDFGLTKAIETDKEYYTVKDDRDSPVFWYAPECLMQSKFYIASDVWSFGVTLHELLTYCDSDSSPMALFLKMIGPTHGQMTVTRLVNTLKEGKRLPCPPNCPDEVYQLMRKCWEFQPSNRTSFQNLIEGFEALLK
compound,measurement,value
CN(C(=O)CN1CCOCC1)c1ccc2sc3c(-c4cccc5c(=O)cc(N6CC7CCC(C6)O7)oc45)cccc3c2c1 [NU5455],inhibition at 1 µM,-5.7%
